Source: US9540343B2 (Gilead Sciences, Inc., priority 2011, dated 2017)

Key:
HIV-IIIb = assay: Test A: Antiviral assay in MT4 cells; type: cell-based, HIV-1; details: Human immunodeficiency virus 1, IIIB, MT4, 120 h, read-out: % inhibition at 2 μM, percent inhibition of virus-induced cell killing, from dose response curve at 2 uM drug; MT-4 cells infected with HIV-IIIb, 5 days, CellTiter-Glo
in vitro = details: human, uninfected MT-4 cells, CC50 (nM), same protocol as Test A, CellTiter-Glo
Summary of the method: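 Cytoprotection read-out: CellTiter-Glo chemiluminescence after 5 days at 37 °C of HIV-IIIb-infected MT-4 cells (m.o.i. 0.003) with compound in 10-point 3-fold dilutions, quadruplicate, 10% FBS. Cytotoxicity (CC50) measured identically without virus.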

SMILES | inhibition at 2 µM (HIV-IIIb) | CC50 at 5 days (in vitro)
Cc1ccc(C)c2c1NC(=O)C2CC(=O)N[C@@H](Cc1cc(F)cc(F)c1)c1ncccc1-c1ccc(F)c(C(N)=O)c1 (stereo partly drawn) [Example 259, 5-(2-((1S)-2-(3,5-difluorophenyl)-1-(2-(4,7-dimethyl-2-oxoindolin-3-yl)acetamido)ethyl)pyridin-3-yl)-2-fluorobenzamide] | 2% | 47600 nM
NC(=O)c1cc(-c2cccnc2[C@H](Cc2cc(F)cc(F)c2)NC(=O)Cn2nc(C(F)F)c3c2C(F)C2CC32)ccc1F (stereo partly drawn) [Example 260, 5-(2-((1S)-1-(2-(3-(difluoromethyl)-5-fluoro-3b,4,4a,5-tetrahydro-1H-cyclopropa[3,4]cyclopenta[1,2-c]pyrazol-1-yl)acetamido)-2-(3,5-difluorophenyl)ethyl)pyridin-3-yl)-2-fluorobenzamide] | 54% | 28100 nM
NC(=O)c1cc(-c2cccnc2[C@H](Cc2cc(F)cc(F)c2)NC(=O)Cn2nc3c(c2C(F)(F)F)CSC3)ccc1F [Example 261, (S)-5-(2-(2-(3,5-difluorophenyl)-1-(2-(3-(trifluoromethyl)-4,6-dihydro-2H-thieno[3,4-c]pyrazol-2-yl)acetamido)ethyl)pyridin-3-yl)-2-fluorobenzamide] | 6% | 21200 nM
Cc1cnc([C@H](Cc2cc(F)cc(F)c2)NC(=O)Cc2c[nH]c3ccc(O)cc23)c(-c2ccc(F)c(C(N)=O)c2)c1 [Example 262G, (S)-5-(2-(2-(3,5-difluorophenyl)-1-(2-(5-hydroxy-1H-indol-3-yl)acetamido)ethyl)-5-methylpyridin-3-yl)-2-fluorobenzamide] | 109% | > 51200 nM
NC(=O)c1cc(-c2cccnc2[C@H](Cc2cc(F)cc(F)c2)NC(=O)Cn2nc(C(F)(F)F)c3c2CCS(=O)(=O)C3)ccc1F [Example 263, (S)-5-(2-(2-(3,5-difluorophenyl)-1-(2-(5,5-dioxido-3-(trifluoromethyl)-6,7-dihydrothiopyrano[4,3-c]pyrazol-1(4H)-yl)acetamido)ethyl)pyridin-3-yl)-2-fluorobenzamide] | 17% | > 53200 nM
NC(=O)c1cc(-c2cccnc2[C@H](Cc2cccc(F)c2)NC(=O)CN2CC(=O)Nc3ccccc32)ccc1F [Example 264, (S)-2-fluoro-5-(2-(2-(3-fluorophenyl)-1-(2-(3-oxo-3,4-dihydroquinoxalin-1(2H)-yl)acetamido)ethyl)pyridin-3-yl)benzamide] | 24% | > 53200 nM
NC(=O)c1cc(-c2cccnc2[C@H](Cc2cc(F)cc(F)c2)NC(=O)Cn2nc(C(F)(F)F)c3c2CC(O)C3)ccc1F (stereo partly drawn) [Example 265] | 74% | > 53200 nM
NC(=O)c1cccc(-c2cccnc2[C@H](Cc2cc(F)cc(F)c2)NC(=O)Cn2ccc3cnc(Cl)nc32)c1 [Example 266C, (S)-3-(2-(1-(2-(2-chloro-7H-pyrrolo[2,3-d]pyrimidin-7-yl)acetamido)-2-(3,5-difluorophenyl)ethyl)pyridin-3-yl)benzamide] | 0% | 51900 nM
NC(=O)c1cc(-c2cccnc2[C@H](Cc2cc(F)cc(F)c2)NC(=O)CC2C(=O)Nc3ccc(F)cc32)ccc1F (stereo partly drawn) [Example 267, 5-(2-((1S)-2-(3,5-difluorophenyl)-1-(2-(5-fluoro-2-oxoindolin-3-yl)acetamido)ethyl)pyridin-3-yl)-2-fluorobenzamide] | 5% | > 52900 nM
O=C(Cn1nc(C(F)F)c2c1C(F)(F)C1CC21)N[C@@H](Cc1cc(F)cc(F)c1)c1ncccc1-c1ccc(OC2CC2)cc1 (stereo partly drawn) [Example 268, N—((S)-1-(3-(4-cyclopropoxyphenyl)pyridin-2-yl)-2-(3,5-difluorophenyl)ethyl)-2-(3-(difluoromethyl)-5,5-difluoro-3b,4,4a,5-tetrahydro-1H-cyclopropa[3,4]cyclopenta[1,2-c]pyrazol-1-yl)acetamide] | 27% | 27700 nM
NC(=O)c1cc(-c2cccnc2[C@H](Cc2cc(F)cc(F)c2)NC(=O)CN2CC(=O)Nc3ccccc32)ccc1F [Example 269, (S)-5-(2-(2-(3,5-difluorophenyl)-1-(2-(3-oxo-3,4-dihydroquinoxalin-1(2H)-yl)acetamido)ethyl)pyridin-3-yl)-2-fluorobenzamide] | 8% | > 53200 nM
NC(=O)c1cc(-c2cccnc2[C@H](Cc2cc(F)cc(F)c2)NC(=O)Cn2nc(C(F)(F)F)c3c2CCNC3=O)ccc1F [Example 270C, (S)-5-(2-(2-(3,5-difluorophenyl)-1-(2-(4-oxo-3-(trifluoromethyl)-4,5,6,7-tetrahydro-1H-pyrazolo[4,3-c]pyridin-1-yl)acetamido)ethyl)pyridin-3-yl)-2-fluorobenzamide] | 1% | > 53200 nM
NC(=O)c1cc(-c2cccnc2[C@H](Cc2cc(F)cc(F)c2)NC(=O)Cn2nc(C(F)(F)F)c3cc(F)ccc32)ccc1F [Example 271B, (S)-5-(2-(2-(3,5-difluorophenyl)-1-(2-(5-fluoro-3-(trifluoromethyl)-1H-indazol-1-yl)acetamido)ethyl)pyridin-3-yl)-2-fluorobenzamide] | 15% | 11400 nM
CC1CCCc2c1c(C(F)(F)F)nn2CC(=O)N[C@@H](Cc1cc(F)cc(F)c1)c1ncccc1-c1ccc(F)c(C(N)=O)c1 (stereo partly drawn) [Example 272F, 5-(2-((1S)-2-(3,5-difluorophenyl)-1-(2-(4-methyl-3-(trifluoromethyl)-4,5,6,7-tetrahydro-1H-indazol-1-yl)acetamido)ethyl)pyridin-3-yl)-2-fluorobenzamide] | 92% | 14300 nM
NC(=O)c1cc(-c2cccnc2[C@H](Cc2cc(F)cc(F)c2)NC(=O)Cn2nc(C(F)(F)F)c3c2C(=O)CCC3)ccc1F [Example 273, (S)-5-(2-(2-(3,5-difluorophenyl)-1-(2-(7-oxo-3-(trifluoromethyl)-4,5,6,7-tetrahydro-1H-indazol-1-yl)acetamido)ethyl)pyridin-3-yl)-2-fluorobenzamide] | 10% | 29600 nM
CC(C)(C)OC(=O)N1CCc2c(c(C(F)(F)F)nn2CC(=O)N[C@@H](Cc2cc(F)cc(F)c2)c2ncccc2-c2ccc(F)c(C(N)=O)c2)C1 [Example 274, (S)-tert-butyl 1-(2-(1-(3-(3-carbamoyl-4-fluorophenyl)pyridin-2-yl)-2-(3,5-difluorophenyl)ethylamino)-2-oxoethyl)-3-(trifluoromethyl)-6,7-dihydro-1H-pyrazolo[4,3-c]pyridine-5(4H)-carboxylate] | 0% | 11000 nM
Cc1c(Br)c(C(F)(F)F)nn1CC(=O)N[C@@H](Cc1cc(F)cc(F)c1)c1ncccc1-c1ccc(F)c(C(N)=O)c1 [Example 275, (S)-5-(2-(1-(2-(4-bromo-5-methyl-3-(trifluoromethyl)-1H-pyrazol-1-yl)acetamido)-2-(3,5-difluorophenyl)ethyl)pyridin-3-yl)-2-fluorobenzamide] | 53% | 16900 nM
NC(=O)c1cc(-c2cccnc2[C@H](Cc2cc(F)cc(F)c2)NC(=O)Cn2cc(C3CC3)c(C(F)(F)F)n2)ccc1F [Example 276, (S)-5-(2-(1-(2-(4-cyclopropyl-3-(trifluoromethyl)-1H-pyrazol-1-yl)acetamido)-2-(3,5-difluorophenyl)ethyl)pyridin-3-yl)-2-fluorobenzamide] | 29% | 16900 nM
